Measured values reported in patent US11547704B2, “Chemical compounds” (GlaxoSmithKline Intellectual Property Development Limited, priority 2016, dated 2023).
pIC50: −log10 of the molar value.

system: ATF4 translation; assay: ATF4 cell based assay (ATF4 reporter assay, NanoLuc luciferase fused to 5'-UTR of ATF4); conditions: SH-SY5Y-ATF4-NanoLuc cells challenged with Thapsigargin for 14-18 hours; average of a set of two or more experimental runs; read-out: average ATF4 pathway inhibitory activity (IC50)
Text: The ATF4 reporter assay measures the effect of Thapsigargin induced cellular stress on ATF4 expression. For this reporter assay, a stable cell line was created by transfecting SH-SY5Y cells with a plasmid containing the NanoLuc® luciferase gene fused to the 5′-UTR of ATF4, under the control of the CMV promoter. The ATF4 5′-UTR contains two open reading frames which mediate the cellular stress-dependent translation of the reporter gene. Clones stably expressing the reporter construct were isolated and selected based on the luminescence response to thapsigargin and inhibition of this signal by test compounds. Briefly, SH-SY5Y-ATF4-NanoLuc cells were challenged with Thapsigargin for 14-18 hours to determine the stress effect with or without test compounds. Cells were propagated in growth media consisting of 90% DMEM F12 (InVitrogen #11320-033), 10% Fetal Bovine Serum (Gibco #10438-026), 5 mM Glutamax (Gibco #35050-061), 5 mM Hopes, (Gibco #15630-080), and 0.5 mg/ml Geneticin (Gibco #10131-027). Cells were prepared for the assay by removing all media from cells, washing the plated cells with phosphate buffered saline, and detached by adding a solution comprised of 10% Tryple express solution (InVitrogen 12604-021) and 90% enzyme-free cell dissociation buffer HANKS base (Gibco 13150-016). The trypsin was deactivated by adding assay media comprised of 90% phenol-red free DMEM F12 (InVitrogen, 11039), 10% Fetal Bovine Serum (Gibco #10438-026), (5 mM Glutamax (Gibco #35050-061), mM Hopes, (Gibco #15630-080), and 0.5 mg/ml Geneticin (Gibco #10131-027). Suspended cells were spun down at 300 g for 5 min, the supernatant was removed and the cell pellet was suspended in warm media (30-37° C.) comprised as above at (1e6 cell/ml). Assay plates were prepared by adding 250 nL of compound stock solution in 100% DMSO to each well, followed by dispensing 20 microliters/well cell suspension to deliver 15-20 k cell/well. Cells were incubated for 1 hour at 37° C. Then, 5 μL of 1.5 μM or 1 μM of Thapsigargin (final concentration: 200-300 nM) was added to each well of cells. Assay plates containing cells were incubated for 14-18 hours at 37° C. The measurement of luciferase produced by the ATF4 constructs was measured as follows. Aliquots of the Nano-Glo reagent (Nano-Glo® Luciferase Assay Substrate, Promega, N113, Nano-Glo® Luciferase Assay Buffer, Promega, N112 (parts of Nano-Glo® Luciferase Assay System, N1150) were brought to room temperature, the substrate and buffer were mixed according to manufacturer's instructions. The cell plates were equilibrated to room temperature. 25microliters/well of the mixed Nano-Glo reagent were dispensed into assay wells and pulse spun to settle contents and the plate was sealed with film. The plates were incubated at room temperature for 1 hour before detecting luminescence on an Envision plate reader.

pIC50	Compound
7.11	O=C(COc1ccc(Cl)cc1)NC1CCN(CCCOc2ccc(Cl)nc2)CC1 [Example 17, 2-(4-chlorophenoxy)-N-(1-(3-((6-chloropyridin-3-yl)oxy)propyl)piperidin-4-yl)acetamide]
> 5.40	O=C(COc1ccc(Cl)cc1)NC1CCN(CCCOc2ccc(Cl)cc2)CC1 [Example 2, 2-(4-chlorophenoxy)-N-(1-(3-(4-chlorophenoxy)propyl)piperidin-4-yl)acetamide]
7.01	O=C(COc1ccc(Cl)cc1)NC1CCN(C(=O)CCCc2ccc(Cl)cc2)CC1 [Example 37, 2-(4-chlorophenoxy)-N-(1-(4-(4-chlorophenyl)butanoyl)piperidin-4-yl)acetamide]
7.23	O=C(COc1ccc(Cl)nc1)NC1CCN(CCCOc2ccc(Cl)cc2)CC1 [Example 43, N-(1-(3-(4-chlorophenoxy)propyl)piperidin-4-yl)-2-((6-chloropyridin-3-yl)oxy)acetamide]
> 6.00	O=C(COc1ccc(Cl)cc1)NCCC1CCCN(C(=O)COc2ccc(Cl)cc2)C1 (centres unmarked) [Example 28, 2-(4-chlorophenoxy)-N-(2-(1-(2-(4-chlorophenoxy)acetyl)piperidin-3-yl)ethyl)acetamide]
< 6.00	O=C(NCCOc1ccc(Cl)cc1)C1CCN(CCCOc2ccc(Cl)cc2)CC1 [Example 40, N-(2-(4-chlorophenoxy)ethyl)-1-(3-(4-chlorophenoxy)propyl)piperidine-4-carboxamide]
< 6.00	O=C(COc1ccc(C2CC2)cc1)NC1CCN(CCCOc2ccc(Cl)cc2)CC1 [Example 56, N-(1-(3-(4-chlorophenoxy)propyl)piperidin-4-yl)-2-(4-cyclopropylphenoxy)acetamide]
6.96	O=C(COc1ccc(Cl)cc1)NC1CCN(C(=O)COc2ccc(Cl)cc2)CC1F (centres unmarked) [Example 30, 2-(4-chlorophenoxy)-N-(1-(2-(4-chlorophenoxy)acetyl)-3-fluoropiperidin-4-yl)acetamide]
7.21	CN(C(=O)COc1ccc(Cl)cc1)C1CCN(CCCOc2ccc(Cl)cc2)CC1 [Example 57, 2-(4-chlorophenoxy)-N-(1-(3-(4-chlorophenoxy)propyl)piperidin-4-yl)-N-methylacetamide]
6.76	O=C(COc1ccc(Cl)cc1)NC1CCN(CCCOc2ccc(Cl)cc2)C(C(=O)O)C1 (centres unmarked) [Example 59, 4-(2-(4-chlorophenoxy)acetamido)-1-(3-(4-chlorophenoxy)propyl)piperidine-2-carboxylic acid]
7.49	O=C(COc1ccc(Cl)cc1)NC1CCN(CC(O)COc2ccc(Cl)cc2)CC1 (centres unmarked) [Example 11, 2-(4-chlorophenoxy)-N-(1-(3-(4-chlorophenoxy)-2-hydroxypropyl)piperidin-4-yl)acetamide]
< 6.00	O=C(NCCOc1ccc(Cl)cc1)C1CCN(CCOc2ccc(Cl)cc2)CC1 [Example 39, N,1-bis(2-(4-chlorophenoxy)ethyl)piperidine-4-carboxamide]
7.03	O=C(COc1ccc(Cl)cc1)NC1CCN(CCOc2ccc(Cl)cc2)CC1F (centres unmarked) [Example 50, 2-(4-chlorophenoxy)-N-(1-(2-(4-chlorophenoxy)ethyl)-3-fluoropiperidin-4-yl)acetamide]
< 6.00	O=C(COc1ccc(Cl)nc1)NCC1CCCN(C(=O)COc2ccc(Cl)cc2)C1 (centres unmarked) [Example 29, N-((1-(2-(4-chlorophenoxy)acetyl)piperidin-3-yl)methyl)-2-((6-chloropyridin-3-yl)oxy)acetamide]
< 6.00	O=C(COc1ccc(Cl)cc1)NCC1CCN(CCCOc2ccc(Cl)cc2)CC1 [Example 49, 2-(4-chlorophenoxy)-N-((1-(3-(4-chlorophenoxy)propyl)piperidin-4-yl)methyl)acetamide]
6.70	O=C(NCCc1ccc(Cl)cc1)C1CCN(C(=O)COc2ccc(Cl)cc2)CC1 [Example 24, N-(4-chlorophenethyl)-1-(2-(4-chlorophenoxy)acetyl)piperidine-4-carboxamide]
< 6.00	O=C(COc1ccc(Cl)cc1)NC1CCCN(C(=O)COc2ccc(Cl)cc2)C1 (centres unmarked) [Example 27, 2-(4-chlorophenoxy)-N-(1-(2-(4-chlorophenoxy)acetyl)piperidin-3-yl)acetamide]
